How the values were obtained:
[1] = tested on: MCT4; assay: MCT4 expression in DU145 cells after ASO transfection; type: cell-based, human; conditions: compared with PC-3 and C4-2
Experimental: (§1) Cells were transfected in 6-well plates with ASOs at 100 nM for 48 hours (unless otherwise indicated) using Oligofectamine™ (Invitrogen™, Carlsbad, Calif.) or with MCT4-targeting siRNAs and controls (Dharmacon™, Chicago, Ill.) at 50 nM for 48 hours using Lipofectamine™ 2000 (Invitrogen™), following the manufacturer's instructions.
(§2) Total RNA was isolated using the RNeasy Mini Kit™ (Qiagen Inc.™, Hilden, Germany) and cDNA synthesized using the QuantiTect Reverse Transcription Kit™ (Qiagen™). Primers were designed using Primer-BLAST™. qRT-PCR reactions using KAPA SYBR Fast Universal™ (Kapa Biosystems™, Woburn, Mass.) were performed in triplicate in a ViiA 7 Real-Time PCR™ system (Applied Biosystems™, Foster City, Calif.). […]
(§3) Cells were harvested and lysed in RIPA buffer (50 mM Tris-Cl pH 7.4, 150 mM NaCl, 1% Igepal, 0.5% Na-deoxycholate, 0.1% SDS) supplemented with a complete protease inhibitor cocktail (Roche, Nutley, N.J.). The protein concentration of the lysate was determined by Pierce BCA Protein Assay™ (Thermo Scientific™, Waltham, Mass.). […] Following overnight incubation at 4° C., the primary antibody was probed with the corresponding secondary antibody and detected using the Odyssey Infrared Imaging System™ (Li-cor Biosciences™) and Image Studio Version 3.1™ (Li-cor Biosciences™). […]

[2] = tested on: PC-3 cells; assay: PC-3 cell proliferation after ASO/siRNA transfection; type: cell-based, human; conditions: for inhibition of PC-3 cell proliferation, screening of ten MCT4 ASOs: 100 nM, 48 hours; for inhibition of cell proliferation, time course: 96 hours post-transfection; for IC50: transfection of 5 nM to 200 nM, read-out: IC50 inhibition of PC-3 cell proliferation
Experimental: (§4) Cell viability was assessed by trypan blue exclusion.
as §1

[3] = tested on: mouse MCT4; assay: Mouse MCT4 expression in TRAMPC2 cells after ASO transfection; type: cell-based; conditions: up to 200 nM
Experimental: as §1, §2, §3

[4] = tested on: PC-3 cells; assay: Lactate and glucose determination in PC-3 cells; type: cell-based, human; conditions: after 48 hours of transfection
Experimental: PC-3 cells transfected with ASOs for 48 hours were assessed for lactate and glucose levels. Cells were incubated with fresh media for 4 hours. A sample of the media was then taken and deproteinated with 10K Spin Columns™ (BioVision™, Milpitas, Calif.) prior to determination of lactate concentration using Lactate Assay Kit (BioVision) and glucose concentration using Glucose Assay Kit™ (BioVision™). Intracellular lactate levels were determined by lysing ASO-transfected cells in MQH2O. Final concentrations were determined by normalizing to the total number of live cells.

[5] = tested on: TRAMPC2 prostate cancer cells; assay: TRAMPC2 cell proliferation after ASO transfection; type: cell-based, mouse; conditions: up to highest tested concentration of 200 nM
Experimental: as §4, §1

[6] = tested on: C4-2 CRPC cells; assay: C4-2 CRPC cell proliferation after ASO transfection; type: cell-based, human; conditions: read-out: IC50 inhibition of C4-2 cell proliferation
Experimental: as §4, §1

[7] = tested on: PC3 cells; assay: Combination screening, total live PC3 cell numbers; type: cell-based, human; conditions: approximate IC50 used for combination screening, 48 hours; read-out: IC50 Concentration
Source text: Human PC-3 and DU145 CRPC cells, human LNCaP prostate cancer cells, and mouse TRAMPC2 prostate cancer cells were purchased from the American Type Culture Collection (ATCC); C4-2 CRPC cells were from the Vancouver Prostate Centre, Vancouver, BC, Canada. Human monolayer cultures were maintained in RPMI-1640 (GE Healthcare Hyclone™, Logan, Utah) supplemented with 10% fetal bovine serum (FBS) (GE Healthcare Hyclone™, Logan, Utah) while TRAMPC2 cells were maintained in DMEM (GE Healthcare Hyclone™, Logan, Utah) supplemented with 5% FBS. For cell counting, cells were trypsinized to form a single cell suspension and counted using a TC20 Automated Cell Counter (Bio-Rad, Hercules, Calif.). Cell viability was assessed by trypan blue exclusion.
Various combination strategies were screened at the approximate IC50 concentrations to determine whether synergistic effects may be found by combining current cancer therapeutics (see TABLE D) with MCT4 ASO SEQ ID NO:5. In FIGS. 10 A-C, the total live PC3 cell numbers were assessed 48 hours after treatment with Metformin, Doxycycline and docetaxel both alone and in combination with MCT4 ASO SEQ ID NO:5.

[8] = tested on: MCT4; assay: MCT4 expression in C4-2 cells after ASO transfection; type: cell-based, human; conditions: read-out: IC50 reduction of MCT4 expression
Experimental: as §1, §2, §3

[9] = tested on: DU145 prostate cancer cells; assay: DU145 cell proliferation after ASO transfection; type: cell-based, human; conditions: compared with PC-3 and C4-2
Experimental: as §4, §1

[10] = tested on: subcutaneous PC-3 tumours; assay: Treatment of PC-3 tumour-bearing nude mice with MCT4 ASO; type: in vivo; conditions: for host toxicity (animal weights and behaviour) / growth of PC-3 tumours: 10 mg/kg intraperitoneal; for host toxicity (animal weights and behaviour): 15 days; for growth of PC-3 tumours: daily for 5 days, 2 days off, total 15 days; for MCT4 protein expression in tumour / cell apoptosis, cleaved-caspase 3 staining / cell proliferation, Ki-67 staining: tumour tissue IHC
Experimental: PC-3 cells ([…] cells in 1:1 HBSS:Matrigel) were injected subcutaneously into both flanks of 24 male athymic nude mice (Simonsen Laboratories™, Gilroy, Calif.). Once the mean tumour volume had reached approximately 100 mm3, mice were randomized into four groups and treated with intraperitoneal injections of MCT4 ASO #1 (SEQ ID NO: 1), #14 (SEQ ID NO: 5), control ASO, or vehicle (PBS) at 10 mg/kg daily for 5 days followed by 2 days off treatment for a total of 15 days. The health of the mice was monitored throughout the study by measuring body weights and checking for abnormal behaviour such as lethargy, lack of hydration, and additional signs of weakness. Tumour size was measured twice weekly and tumour volume calculated using the formula: Volume=Length×width×depth×0.5236 (mm3). Mice were sacrificed 1 hour after the final dose for tissue harvesting.
Tumour tissue was formalin-fixed and paraffin-embedded for immunohistochemical analysis. Tissues were sectioned, probed, and stained with DAB (Sigma™) as previously described (Wang et al., 2005). […] For MCT4, images of five random fields at 200× magnification were taken per tumour and staining intensity was assessed by percentage scoring, using the formula: Intensity=(% area score 3)×3+(% area score 2)×2+(% area score 1)×1. The extent of immune cell aggregation was quantified following CD31 staining by imaging the five most prominent regions of aggregates per tumour at 200× magnification and determining the percent area of the field they occupied. The proportions of immune cells were evaluated as the area of positive staining normalized to the area occupied by immune cell aggregates in the same five prominent regions.

[11] = tested on: PC-3 cells; assay: qPCR of glycolysis and lactic acid conversion genes in PC-3 cells; type: cell-based, human
Experimental: (§5) Total RNA was isolated using the RNeasy Mini Kit™ (Qiagen Inc.™, Hilden, Germany) and cDNA synthesized using the QuantiTect Reverse Transcription Kit™ (Qiagen™). Primers were designed using Primer-BLAST™. qRT-PCR reactions using KAPA SYBR Fast Universal™ (Kapa Biosystems™, Woburn, Mass.) were performed in triplicate in a ViiA 7 Real-Time PCR™ system (Applied Biosystems™, Foster City, Calif.). Target genes were normalized to a geometric average of 3 internal reference genes (Vandesompele et al., 2002).

[12] = tested on: MCT4 mRNA; assay: MCT4 expression (mRNA, protein) in PC-3 cells after ASO transfection; type: cell-based, human; conditions: for MCT4 protein levels, time course: 96 hours; for inhibition of MCT4 expression, screening of ten MCT4 ASOs: qPCR and Western blot, 48 hours; for IC50: transfection of 5 nM to 200 nM, read-out: IC50 reduction of MCT4 mRNA levels
Experimental: as §1, §5
Cells were harvested and lysed in RIPA buffer (50 mM Tris-Cl pH 7.4, 150 mM NaCl, 1% Igepal, 0.5% Na-deoxycholate, 0.1% SDS) supplemented with a complete protease inhibitor cocktail (Roche, Nutley, N.J.). The protein concentration of the lysate was determined by Pierce BCA Protein Assay™ (Thermo Scientific™, Waltham, Mass.). The lysate was run on 8% SDS polyacrylamide gel (20 ug of protein per lane) and proteins were transferred onto PVDF membrane (Millipore™, Billerica, Mass.). The blot was blocked with the Odyssey™ blocking buffer (Li-cor Biosciences™) and probed with anti-MCT4 antibody. Vinculin was used as a loading control. Following overnight incubation at 4° C., the primary antibody was probed with the corresponding secondary antibody and detected using the Odyssey Infrared Imaging System™ (Li-cor Biosciences™) and Image Studio Version 3.1™ (Li-cor Biosciences™). Densitometry analysis was done using ImageJ (U.S. National Institutes of Health, Bethesda, Md.).

Sequence | inhibitory effect on MCT4 expression in DU145 cells [1] | inhibition of PC-3 cell proliferation, screening of ten MCT4 ASOs [2] | inhibition of cell proliferation, time course [2] | IC50 [2] | reduction in mouse MCT4 expression [3] | glucose consumption [4] | intracellular lactate [4] | lactic acid secretion [4] | reduction in TRAMPC2 cell proliferation [5] | IC50 [6] | IC50 [8] | inhibitory effect on DU145 cell proliferation [9] | host toxicity (animal weights and behaviour) [10] | growth of PC-3 tumours [10] | MCT4 protein expression in tumour [10] | cell apoptosis, cleaved-caspase 3 staining [10] | cell proliferation, Ki-67 staining [10] | expression of glycolysis genes GAPDH, PGK1, PGAM1 and ENO1 [11] | expression of lactate dehydrogenase A (LDHA) [11] | expression of pyruvate dehydrogenase kinase-1 (PDK1) [11] | also measured
AGATGCAGAAGACCACGAGG (chemistry not given here; listed as Homo sapiens) [SEQ ID No. 5] | almost identical IC50 values | greatest potency | maintained the inhibition of cell proliferation | 26 nM | did not lead to a significant reduction | extensive decrease | accumulation | marked inhibition | did not lead to a significant reduction | 27 nM | 26 nM | almost identical IC50 values | without inducing major host toxicity | markedly inhibited | decrease in MCT4 protein expression | increase in cell apoptosis | decrease in cell proliferation | down regulation | depressed | decreased expression | IC50 [7]: 50 nM; MCT4 protein levels, time course [12]: remained low; inhibition of MCT4 expression, screening of ten MCT4 ASOs [12]: greatest potency; IC50 [12]: 32 nM
TCCCATGGCCAGGAGGGTTG (chemistry not given here; listed as Homo sapiens) [SEQ ID No. 1] | almost identical IC50 values | greatest potency | maintained the inhibition of cell proliferation | 50 nM | did not lead to a significant reduction | extensive decrease | accumulation | marked inhibition | did not lead to a significant reduction | 40 nM | 50 nM | almost identical IC50 values | without inducing major host toxicity | markedly inhibited | decrease in MCT4 protein expression | increase in cell apoptosis | decrease in cell proliferation | down regulation | depressed | decreased expression | MCT4 protein levels, time course [12]: remained low; inhibition of MCT4 expression, screening of ten MCT4 ASOs [12]: greatest potency; IC50 [12]: 50 nM
